Converted amounts (≈) assume the structure as drawn.
Tests used:
[1] = system: M. catarrhalis BC3534; assay: Antibacterial assay (Test A), microtitration MIC, Gram negative; assay type: cell-based; conditions: Moraxella catarrhalis; Gram Negative Bacteria; strain BC3534; read-out: Minimum Inhibitory Concentrations M. catarrhalis BC3534
Experimental: (§1) The compounds of the present invention were tested against an assortment of Gram-negative and Gram-positive organisms using standard microtitration techniques (Cohen et. al., Antimicrob., 1985;28:766;Heifetz, et. al., Antimicrob., 1974;6: 124).

[2] = system: H. influenzae HI3542; assay: as above; assay type: cell-based; conditions: Haemophilus influenzae; Gram Negative Bacteria; strain HI3542; read-out: Minimum Inhibitory Concentrations H. influenzae HI3542
Experimental: as §1

[3] = system: E. coli Tol C; assay: as above; assay type: cell-based; conditions: Escherichia coli, read-out: Minimum Inhibitory Concentrations E. coli Tol C
Experimental: as §1

[4] = system: E. coli transcription and translation (TnT); assay type: biochemical
[5] = system: E. faecalis MGH-2; assay: Antibacterial assay (Test A), microtitration MIC, Gram positive; assay type: cell-based; conditions: Enterococcus faecalis, MGH2; Gram Positive Bacteria; strain MGH-2; read-out: Minimum Inhibitory Concentrations E. faecalis MGH-2
Experimental: as §1

[6] = system: S pyogenes C203; assay: as above; assay type: cell-based; conditions: Gram Positive Bacteria; strain C203; read-out: Minimum Inhibitory Concentrations S pyogenes C203
Experimental: as §1

[7] = system: S. aureus UC-76; assay: as above; assay type: cell-based; conditions: Staphylococcus aureus, UC76; Gram Positive Bacteria; strain UC-76; read-out: Minimum Inhibitory Concentrations S. aureus UC-76
Experimental: as §1

| Compound | MIC [1] | MIC [2] | MIC [3] | Inhibitory concentration in E. coli cell-free transcription/translation (TnT) assay [4] | MIC [5] | MIC [6] | MIC [7] |
| --- | --- | --- | --- | --- | --- | --- | --- |
| CC(=O)NC[C@H]1CN(c2ccc3c(c2)CCN(c2c(F)cc4c(=O)c(C(=O)O)cn(C5CC5)c4c2F)CC3)C(=O)O1 [Example 12, 7-{7-[5-(Acetylamino-methyl)-2-oxo-oxazolidin-3-yl]-1,2,4,5-tetrahydro-benzo[d]azepin-3-yl}-1-cyclopropyl-6,8-difluoro-4-oxo-1,4-dihydro-quinoline-3-carboxylic Acid] | 0.25 µg/mL (≈ 0.441 µM) | 0.06 µg/mL (≈ 0.106 µM) | 4 µg/mL (≈ 7.06 µM) | 9.3 µg/mL | 1 µg/mL (≈ 1.77 µM) | 1 µg/mL (≈ 1.77 µM) | 0.25 µg/mL (≈ 0.441 µM) |
| CC(=O)NC[C@H]1CN(c2ccc3c(c2)CCN(c2nc4c(cc2F)c(=O)c(C(=O)O)cn4C2CC2)CC3)C(=O)O1 [Example 14, 7-{7-[5-(Acetylamino-methyl)-2-oxo-oxazolidin-3-yl]-1,2,4,5-tetrahydro-benzo[d]azepin-3-yl}-1-cyclopropyl-6-fluoro-4-oxo-1,4-dihydro-[1,8]naphthyridine-3-carboxylic Acid] | 2 µg/mL (≈ 3.64 µM) | 0.06 µg/mL (≈ 0.109 µM) | 16 µg/mL (≈ 29.1 µM) | 15 µg/mL | 16 µg/mL (≈ 29.1 µM) | 8 µg/mL (≈ 14.6 µM) | 0.5 µg/mL (≈ 0.91 µM) |
| CC(=O)NC[C@H]1CN(c2ccc3c(c2)CCCN(c2cc4c(cc2F)c(=O)c(C(=O)O)cn4C2CC2)C3)C(=O)O1 [Example 16, 7-{7-[5-(Acetylamino-methyl)-2-oxo-oxazolidin-3-yl]-1,3,4,5-tetrahydro-benzo[c]azepin-2-yl}-1-cyclopropyl-6-fluoro-4-oxo-1,4-dihydro-quinolne-3-carboxylic Acid] | 16 µg/mL (≈ 29.2 µM) | 0.125 µg/mL (≈ 0.228 µM) | 64 µg/mL (≈ 117 µM) | 10 µg/mL | 32 µg/mL (≈ 58.3 µM) | 4 µg/mL (≈ 7.29 µM) | 8 µg/mL (≈ 14.6 µM) |

From patent US7304050B2, “Antibacterial agents” (Pfizer Inc., priority 2003, dated 2007)
